Measured values taken from ChEMBL document CHEMBL5724806, “Unraveling interindividual differences and functional consequences of gut microbial metabolism of immunosuppressants” (2024).

Legend:
Assay type in all cases: ADME
[1] = The drug is tested on Bifidobacterium adolescentis strain: DSM20083 for biotransformation under anaerobic condition. The drug concentrations were measured over 6 timepoints collected between 0 and 12 hours of incubation by liquid-chromatography-coupled mass spectrometry (LC–MS); design: dose 5 uM, timepoint 0, 1.5, 3, 6, 9, 12 hours; conditions: 5 µM
[2] = The drug is tested on Bacteroides fragilis strain: DSM2151 for biotransformation under anaerobic condition. The drug concentrations were measured over 6 timepoints collected between 0 and 12 hours of incubation by liquid-chromatography-coupled mass spectrometry (LC–MS); design: dose 5 uM, timepoint 0, 1.5, 3, 6, 9, 12 hours; conditions: 5 µM
[3] = The drug is tested on Coprococcus comes strain: ATCC27758 for biotransformation under anaerobic condition. The drug concentrations were measured over 6 timepoints collected between 0 and 12 hours of incubation by liquid-chromatography-coupled mass spectrometry (LC–MS); design: dose 5 uM, timepoint 0, 1.5, 3, 6, 9, 12 hours; conditions: 5 µM
[4] = The drug is tested on Eubacterium eligens strain: DSM3376 for biotransformation under anaerobic condition. The drug concentrations were measured over 6 timepoints collected between 0 and 12 hours of incubation by liquid-chromatography-coupled mass spectrometry (LC–MS); design: dose 5 uM, timepoint 0, 1.5, 3, 6, 9, 12 hours; conditions: lachnospira eligens, 5 µM
[5] = The drug is tested on Gemella morbillorum strain: DSM20572 for biotransformation under anaerobic condition. The drug concentrations were measured over 6 timepoints collected between 0 and 12 hours of incubation by liquid-chromatography-coupled mass spectrometry (LC–MS); design: dose 5 uM, timepoint 0, 1.5, 3, 6, 9, 12 hours; conditions: 5 µM
[6] = The drug is tested on Lactobacillus fermentum strain: DSM20052 for biotransformation under anaerobic condition. The drug concentrations were measured over 6 timepoints collected between 0 and 12 hours of incubation by liquid-chromatography-coupled mass spectrometry (LC–MS); design: dose 5 uM, timepoint 0, 1.5, 3, 6, 9, 12 hours; conditions: limosilactobacillus fermentum, 5 µM
[7] = The drug is tested on Lactobacillus reuteri strain: DSM20016 for biotransformation under anaerobic condition. The drug concentrations were measured over 6 timepoints collected between 0 and 12 hours of incubation by liquid-chromatography-coupled mass spectrometry (LC–MS); design: dose 5 uM, timepoint 0, 1.5, 3, 6, 9, 12 hours; conditions: limosilactobacillus reuteri, 5 µM
[8] = The drug is tested on Enterococcus faecalis strain: ATCC29212 for biotransformation under anaerobic condition. The drug concentrations were measured over 6 timepoints collected between 0 and 12 hours of incubation by liquid-chromatography-coupled mass spectrometry (LC–MS); design: dose 5 uM, timepoint 0, 1.5, 3, 6, 9, 12 hours; conditions: 5 µM
[9] = The drug is tested on Alloscardovia omnicolens strain: DSM21503 for biotransformation under microaerobic condition. The drug concentrations were measured over 6 timepoints collected between 0 and 12 hours of incubation by liquid-chromatography-coupled mass spectrometry (LC–MS); design: dose 5 uM, timepoint 0, 1.5, 3, 6, 9, 12 hours; conditions: 5 µM
[10] = The drug is tested on Capnocytophaga ochracea strain: DSM7271 for biotransformation under microaerobic condition. The drug concentrations were measured over 6 timepoints collected between 0 and 12 hours of incubation by liquid-chromatography-coupled mass spectrometry (LC–MS); design: dose 5 uM, timepoint 0, 1.5, 3, 6, 9, 12 hours; conditions: 5 µM
[11] = The drug is tested on Gemella haemolysans strain: DSM107751 for biotransformation under microaerobic condition. The drug concentrations were measured over 6 timepoints collected between 0 and 12 hours of incubation by liquid-chromatography-coupled mass spectrometry (LC–MS); design: dose 5 uM, timepoint 0, 1.5, 3, 6, 9, 12 hours; conditions: 5 µM
[12] = The drug is tested on Lactobacillus fermentum strain: DSM20052 for biotransformation under microaerobic condition. The drug concentrations were measured over 6 timepoints collected between 0 and 12 hours of incubation by liquid-chromatography-coupled mass spectrometry (LC–MS); design: dose 5 uM, timepoint 0, 1.5, 3, 6, 9, 12 hours; conditions: limosilactobacillus fermentum, 5 µM
[13] = The drug is tested on Enterococcus faecalis strain: ATCC29212 for biotransformation under microaerobic condition. The drug concentrations were measured over 6 timepoints collected between 0 and 12 hours of incubation by liquid-chromatography-coupled mass spectrometry (LC–MS); design: dose 5 uM, timepoint 0, 1.5, 3, 6, 9, 12 hours; conditions: 5 µM
[14] = The drug is tested on Escherichia coli strain: DSM27469 for biotransformation under microaerobic condition. The drug concentrations were measured over 6 timepoints collected between 0 and 12 hours of incubation by liquid-chromatography-coupled mass spectrometry (LC–MS); design: dose 5 uM, timepoint 0, 1.5, 3, 6, 9, 12 hours; conditions: 5 µM
[15] = The drug is tested on the gut metagenome community of A-05 with ENA study accession number: PRJEB31790 for biotransformation under anaerobic condition. The drug concentrations were measured over 7 timepoints collected between 0 and 12 hours of incubation by liquid-chromatography-coupled mass spectrometry (LC–MS); design: dose 5 uM, timepoint 0, 0.75, 1.5, 3, 6, 9, 12 hours; conditions: 5 µM
[16] = The drug is tested on the gut metagenome community of A-08 with ENA study accession number: PRJEB31790 for biotransformation under anaerobic condition. The drug concentrations were measured over 7 timepoints collected between 0 and 12 hours of incubation by liquid-chromatography-coupled mass spectrometry (LC–MS); design: dose 5 uM, timepoint 0, 0.75, 1.5, 3, 6, 9, 12 hours; conditions: 5 µM
[17] = The drug is tested on the gut metagenome community of P-02 with ENA study accession number: PRJEB31790 for biotransformation under anaerobic condition. The drug concentrations were measured over 7 timepoints collected between 0 and 12 hours of incubation by liquid-chromatography-coupled mass spectrometry (LC–MS); design: dose 5 uM, timepoint 0, 0.75, 1.5, 3, 6, 9, 12 hours; conditions: 5 µM
[18] = The drug is tested on the gut metagenome community of P-04 with ENA study accession number: PRJEB31790 for biotransformation under anaerobic condition. The drug concentrations were measured over 7 timepoints collected between 0 and 12 hours of incubation by liquid-chromatography-coupled mass spectrometry (LC–MS); design: dose 5 uM, timepoint 0, 0.75, 1.5, 3, 6, 9, 12 hours; conditions: 5 µM
[19] = The drug is tested on the gut metagenome community of A-02 with ENA study accession number: PRJEB31790 for biotransformation under microaerobic condition. The drug concentrations were measured over 7 timepoints collected between 0 and 12 hours of incubation by liquid-chromatography-coupled mass spectrometry (LC–MS); design: dose 5 uM, timepoint 0, 0.75, 1.5, 3, 6, 9, 12 hours; conditions: 5 µM
[20] = The drug is tested on the gut metagenome community of A-06 with ENA study accession number: PRJEB31790 for biotransformation under microaerobic condition. The drug concentrations were measured over 7 timepoints collected between 0 and 12 hours of incubation by liquid-chromatography-coupled mass spectrometry (LC–MS); design: dose 5 uM, timepoint 0, 0.75, 1.5, 3, 6, 9, 12 hours; conditions: 5 µM
[21] = The drug is tested on the gut metagenome community of A-07 with ENA study accession number: PRJEB31790 for biotransformation under microaerobic condition. The drug concentrations were measured over 7 timepoints collected between 0 and 12 hours of incubation by liquid-chromatography-coupled mass spectrometry (LC–MS); design: dose 5 uM, timepoint 0, 0.75, 1.5, 3, 6, 9, 12 hours; conditions: 5 µM
[22] = The drug is tested on the gut metagenome community of A-09 with ENA study accession number: PRJEB31790 for biotransformation under microaerobic condition. The drug concentrations were measured over 7 timepoints collected between 0 and 12 hours of incubation by liquid-chromatography-coupled mass spectrometry (LC–MS); design: dose 5 uM, timepoint 0, 0.75, 1.5, 3, 6, 9, 12 hours; conditions: 5 µM
[23] = The drug is tested on the gut metagenome community of P-02 with ENA study accession number: PRJEB31790 for biotransformation under microaerobic condition. The drug concentrations were measured over 7 timepoints collected between 0 and 12 hours of incubation by liquid-chromatography-coupled mass spectrometry (LC–MS); design: dose 5 uM, timepoint 0, 0.75, 1.5, 3, 6, 9, 12 hours; conditions: 5 µM
[24] = The drug is tested on the gut metagenome community of T-01 with ENA study accession number: PRJEB31790 for biotransformation under microaerobic condition. The drug concentrations were measured over 7 timepoints collected between 0 and 12 hours of incubation by liquid-chromatography-coupled mass spectrometry (LC–MS); design: dose 5 uM, timepoint 0, 0.75, 1.5, 3, 6, 9, 12 hours; conditions: 5 µM
[25] = The drug is tested on the gut metagenome community of T-03 with ENA study accession number: PRJEB31790 for biotransformation under microaerobic condition. The drug concentrations were measured over 7 timepoints collected between 0 and 12 hours of incubation by liquid-chromatography-coupled mass spectrometry (LC–MS); design: dose 5 uM, timepoint 0, 0.75, 1.5, 3, 6, 9, 12 hours; conditions: 5 µM

| Compound | Bacterial Biotransformation [1] | Bacterial Biotransformation [2] | Bacterial Biotransformation [3] | Bacterial Biotransformation [4] | Bacterial Biotransformation [5] | Bacterial Biotransformation [6] | Bacterial Biotransformation [7] | Bacterial Biotransformation [8] | Bacterial Biotransformation [9] | Bacterial Biotransformation [10] | Bacterial Biotransformation [11] | Bacterial Biotransformation [12] | Bacterial Biotransformation [13] | Bacterial Biotransformation [14] | Bacterial Biotransformation [15] | Bacterial Biotransformation [16] | Bacterial Biotransformation [17] | Bacterial Biotransformation [18] | Bacterial Biotransformation [19] | Bacterial Biotransformation [20] | also measured |
| --- | --- | --- | --- | --- | --- | --- | --- | --- | --- | --- | --- | --- | --- | --- | --- | --- | --- | --- | --- | --- | --- |
| CCOC(=O)C1=C(COCCN)NC(C)=C(C(=O)OC)C1c1ccccc1Cl (stereo not given) [AMLODIPINE] | Compound NOT metabolized | Compound NOT metabolized | Compound NOT metabolized | Compound NOT metabolized | Compound NOT metabolized | Compound NOT metabolized | Compound NOT metabolized | Compound NOT metabolized | Compound NOT metabolized | Compound NOT metabolized | Compound NOT metabolized | Compound NOT metabolized | Compound metabolized | Compound NOT metabolized | Compound NOT metabolized | Compound NOT metabolized | Compound NOT metabolized | Compound NOT metabolized | Compound metabolized | Compound NOT metabolized | Bacterial Biotransformation [21]: Compound NOT metabolized; Bacterial Biotransformation [22]: Compound NOT metabolized; Bacterial Biotransformation [23]: Compound NOT metabolized; Bacterial Biotransformation [24]: Compound NOT metabolized; Bacterial Biotransformation [25]: Compound NOT metabolized |
| CC(C)NCC(O)COc1ccc(CC(N)=O)cc1 (stereo not given) [ATENOLOL] | Compound NOT metabolized | Compound NOT metabolized | Compound NOT metabolized | Compound NOT metabolized | Compound NOT metabolized | Compound NOT metabolized | Compound NOT metabolized | Compound NOT metabolized | Compound NOT metabolized | Compound NOT metabolized | Compound NOT metabolized | Compound NOT metabolized | Compound NOT metabolized | Compound NOT metabolized | Compound NOT metabolized | Compound NOT metabolized | Compound NOT metabolized | Compound NOT metabolized | Compound NOT metabolized | Compound NOT metabolized | Bacterial Biotransformation [21]: Compound NOT metabolized; Bacterial Biotransformation [22]: Compound NOT metabolized; Bacterial Biotransformation [23]: Compound NOT metabolized; Bacterial Biotransformation [24]: Compound NOT metabolized; Bacterial Biotransformation [25]: Compound NOT metabolized |
| Cn1cnc([N+](=O)[O-])c1Sc1ncnc2nc[nH]c12 [AZATHIOPRINE] | Compound metabolized | Compound metabolized | Compound metabolized | Compound metabolized | Compound NOT metabolized | Compound metabolized | Compound NOT metabolized | Compound metabolized | Compound NOT metabolized | Compound metabolized | Compound NOT metabolized | Compound NOT metabolized | Compound metabolized | Compound metabolized | Compound metabolized | Compound metabolized | Compound NOT metabolized | Compound NOT metabolized | Compound metabolized | Compound metabolized | Bacterial Biotransformation [21]: Compound metabolized; Bacterial Biotransformation [22]: Compound metabolized; Bacterial Biotransformation [23]: Compound NOT metabolized; Bacterial Biotransformation [24]: Compound NOT metabolized; Bacterial Biotransformation [25]: Compound metabolized |
